In US10543171B2, “Dermal drug delivery using amphiphilic dendron-coil micelles” (THE BOARD OF TRUSTEES OF THE UNIVERSITY OF ILLINOIS, priority 2013, dated 2020):
“Also recorded” adds a separate entry of the source. Blank lines part the entries; values can stand above or below the molecule they belong to.

Assays:
[1] = tested on: MDA-MB-231 cells; assay: in vitro anti-proliferation assay (MTS) against MDA-MB-231; format: cell-based; settings: ER-negative; comparable drug concentrations; listed as free EDX
[2] = 25° C.; cited from earlier work
[3] = target: folate receptors (FR); settings: read-out: affinity for FR (KD); cited from earlier work
[4] = skin deposition of Cou6 from two-dye dendron micelles (CLSM, spectrofluorometer); format: in vitro ADME, mouse
Procedure: To prepare two-dye dendron micelles, two milligrams of acetylated, RHO-labeled PDC (PDC-RHO-Ac) was combined with 10 mg of unlabeled surface modified PDC in 1.2 mL DMF, and 2% (wt %) of Cou6 was added to the mixture. The materials were fully dissolved and mixed by brief vortexing followed by gentle shaking for 2 h. The Cou6-encapsulated, RHO-labeled dendron micelles were prepared by the dialysis method, and the solid material was obtained by lyophilization as described above.
SKH-1 hairless mouse skin was exposed to the Cou6-loaded micelles with different surfaces for 24 h in the Franz cell setup. The skin area that was exposed to the treatment was carefully collected, rinsed twice with ddH2O for 10 min and embedded into cryomolds (Tissue-Tek®, Sakura Finetek USA, Inc., Torrance, Calif.). Skin was cryosectioned into 80 um-thick slices and placed on anti-frost glass slides. The slides were then fixed by 10% neutral buffered formalin for 10 min at RT and rinsed with ddH2O. The skin slides were mounted with antiphotobleaching mounting media with DAPI (Vector Laboratory Inc., Burlingame, Calif.) and covered with glass cover slips. […]
After the two-dye micelle experiment, the fluorescence intensity in the donor and receiver solutions, as well as skin extracts were detected using a SoftMax Pro spectrofluorometer (Spectra MAX, Molecular Devices Inc., Sunnyvale, Calif.). […]

SMILES: CC/C(=C(\c1ccc(O)cc1)c1ccc(OCCNC)cc1)c1ccccc1 [EDX, 4-hydroxy-N-desmethyl tamoxifen]
anti-proliferative effect / cytotoxicity against MDA-MB-231 cells [1]: neither free EDX nor EDX-loaded micelles had significant cytotoxicity; also recorded: Neither free EDX nor EDX-loaded DMs exhibited significant anti-proliferative effect
partition coefficient (log P) [2]: 6.01

SMILES: Nc1nc2ncc(CNc3ccc(C(=O)N[C@@H](CCC(=O)O)C(=O)O)cc3)nc2c(=O)[nH]1 [FA, folic acid]
Kd [3]: ~0.1 nM

Cou6 delivered into skin (skin extract) ([4]; Cou6-encapsulated, RHO-labeled micelles or free Cou6 in ethanol, mouse skin): 26.48±2.51%
SMILES: CCN(CC)c1ccc2cc(-c3nc4ccccc4s3)c(=O)oc2c1 [free Cou6, Coumarin-6]
Cou6 distribution in skin layers (CLSM) ([4]; mouse skin cross-sections after Franz cell experiment): could not diffuse efficiently into the skin layers
